Measurements as given in patent US12649750B2, “Macrocyclic compounds, compositions, and methods of using thereof” (Sionna Therapeutics Inc., priority 2022, dated 2026).

What was measured:
[1] = molecular target: T1, CFTR (Homo sapiens, UniProt P13569, DEL508-508); test: TECC24 AUC fold over DMSO @10 μM, CFTR-mediated transepithelial chloride transport in CF-HBE cells; format: cell-based; settings: test agent AUC divided by DMSO vehicle AUC, primary CF-HBE cells, ΔF508 homozygous donor, 48 hours incubation
T1 construct: Primary human bronchial epithelial cells from a ΔF508 homozygous CF donor; host or cells: primary human bronchial epithelial cells (CF-HBE), ΔF508 homozygous donor
T1 sequence (P13569 with tags, fused parts or gaps DEL508-508): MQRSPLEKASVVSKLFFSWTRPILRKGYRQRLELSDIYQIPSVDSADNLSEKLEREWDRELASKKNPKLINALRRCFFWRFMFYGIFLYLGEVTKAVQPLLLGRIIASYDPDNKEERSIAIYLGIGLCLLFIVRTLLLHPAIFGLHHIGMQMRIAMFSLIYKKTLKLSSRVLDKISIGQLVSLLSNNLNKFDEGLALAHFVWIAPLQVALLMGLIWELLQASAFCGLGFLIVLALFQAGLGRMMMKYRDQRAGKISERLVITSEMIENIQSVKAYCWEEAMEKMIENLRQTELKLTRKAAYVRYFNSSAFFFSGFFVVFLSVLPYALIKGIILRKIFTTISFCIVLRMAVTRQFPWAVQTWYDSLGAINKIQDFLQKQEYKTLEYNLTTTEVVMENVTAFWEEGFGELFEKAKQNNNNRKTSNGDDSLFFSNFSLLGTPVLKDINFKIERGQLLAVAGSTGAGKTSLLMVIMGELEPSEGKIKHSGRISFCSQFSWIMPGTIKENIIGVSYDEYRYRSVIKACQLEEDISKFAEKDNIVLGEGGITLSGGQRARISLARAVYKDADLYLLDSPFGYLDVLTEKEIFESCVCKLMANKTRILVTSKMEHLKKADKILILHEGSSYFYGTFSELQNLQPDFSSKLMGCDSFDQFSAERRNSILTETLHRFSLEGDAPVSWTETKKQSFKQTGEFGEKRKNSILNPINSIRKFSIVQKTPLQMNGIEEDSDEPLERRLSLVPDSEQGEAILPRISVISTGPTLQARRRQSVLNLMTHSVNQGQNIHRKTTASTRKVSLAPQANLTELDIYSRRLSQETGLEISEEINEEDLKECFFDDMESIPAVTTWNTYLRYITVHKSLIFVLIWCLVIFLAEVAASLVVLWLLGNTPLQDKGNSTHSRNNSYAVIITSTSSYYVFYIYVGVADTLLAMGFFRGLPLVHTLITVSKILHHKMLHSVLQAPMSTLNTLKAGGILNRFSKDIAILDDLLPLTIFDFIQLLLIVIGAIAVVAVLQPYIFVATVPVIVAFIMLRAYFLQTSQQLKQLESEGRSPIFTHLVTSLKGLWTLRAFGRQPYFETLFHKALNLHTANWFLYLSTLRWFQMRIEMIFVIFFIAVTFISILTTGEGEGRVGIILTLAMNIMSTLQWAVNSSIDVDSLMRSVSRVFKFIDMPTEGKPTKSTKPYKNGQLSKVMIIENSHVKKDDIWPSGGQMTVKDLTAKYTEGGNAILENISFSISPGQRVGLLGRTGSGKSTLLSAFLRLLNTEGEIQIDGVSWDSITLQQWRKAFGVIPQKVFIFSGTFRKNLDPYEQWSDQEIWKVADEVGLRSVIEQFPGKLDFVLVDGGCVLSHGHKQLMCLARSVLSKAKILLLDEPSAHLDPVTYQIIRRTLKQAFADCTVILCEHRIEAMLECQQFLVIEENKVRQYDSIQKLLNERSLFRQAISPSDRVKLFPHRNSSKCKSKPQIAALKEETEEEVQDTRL
Experimental: Example 387. TECC24 AUC Fold Over DMSO @10 μM
The effects of a test agent on CFTR-mediated transepithelial chloride transport is measured using TECC24 recording analysis. Test agents are solubilized in DMSO. Solubilized test agents are mixed with incubation medium containing DMEM/F12, Ultroser G (2%; Crescent Chemical, catalog #67042), Hyclone Fetal Clone II (2%; GE Healthcare, catalog #SH30066.02), bovine brain extract (0.25%; Lonza, catalog #CC-4098), insulin (2.5 μg/mL), IL-13 (10 ng/mL), hydrocortisone (20 nM), transferrin (2.5 μg/mL), triiodothyronine (500 nM), ethanolamine (250 nM), epinephrine (1.5 μM), phosphoethanolamine (250 nM), and retinoic acid (10 nM). Primary human bronchial epithelial cells from a ΔF508 homozygous CF donor (CF-HBE cells; from University of North Carolina Cystic Fibrosis Tissue Procurement Center), grown on Transwell HTS 24-well cell culture inserts (Costar, catalog #3378), are exposed to test agents or controls dissolved in incubation medium. The CF-HBE cells are cultured at 36.5° C. for 48 hours before TECC24 recordings are performed in the presence or absence of test agent, a positive control or vehicle (DMSO).
Following incubation, the transwell cell culture inserts containing the test agent or control-treated CF-HBE cells are loaded onto a TECC24 apparatus (TECC v7 or MTECC v2; EP Design) to record the transepithelial voltage (VT) and resistance (TEER) using 4 AgCl electrodes per well configured in current-clamp mode. The apical and basolateral bath solutions both contain (in mM) 140 NaCl, 5 KCl, 2 CaCl2, 1 MgCl2, 10 Hepes, and 10 glucose (adjusted to pH 7.4 with NaOH). To inhibit basal Na+ absorption, the ENaC inhibitor benzamil (10 μM) is added to the bath. Then, the adenylate cyclase activator, forskolin (10 μM), is added to the bath to activate CFTR. The forskolin-stimulated Cl— transport is halted by addition of CFTR inhibitor-172 (20 μM) to the bath at the end of the experiment to confirm specificity. VT and TEER recordings are digitally acquired at routine intervals using TECC or MTECC software (EP Design). VT and TEER are transformed into equivalent transepithelial Cl— current (IEQ), and the Area Under the Curve (AUC) of the IEQ time course between forskolin and CFTR inhibitor-172 addition is generated using Excel (Microsoft). Efficacy is expressed as the ratio of the test agent AUC divided by vehicle AUC. EC50s based on AUC are generated using the non-linear regression log(agonist) vs. response function in Prism software (Graphpad) with HillSlope fixed=1.
If a test agent increases the AUC of the forskolin-stimulated IEQ relative to vehicle in CF-HBE cells, and this increase is inhibited by CFTR inhibitor-172, then the test agent is considered a CFTR corrector. TECC assay efficacy is expressed as the ratio of the test agent AUC divided by DMSO vehicle AUC. As set forth in Table 2 below, a TECC value less than 12 is marked “A”; a value between 12-20 is marked “B”; a value between 20 and 80 is marked “C”. […]

[2] = molecular target: T2, NBD1 (Homo sapiens, UniProt P13569); test: Aggregation analysis using differential static light scattering (DSLS), thermal stability of NBD1 (ΔTagg); format: binding; settings: ΔTagg versus DMSO control, NBD1 0.2 mg/ml
T2 construct: Purified recombinant NBD1 was produced using previously described methods; made in house
T2 sequence (P13569 423-646 limits assumed): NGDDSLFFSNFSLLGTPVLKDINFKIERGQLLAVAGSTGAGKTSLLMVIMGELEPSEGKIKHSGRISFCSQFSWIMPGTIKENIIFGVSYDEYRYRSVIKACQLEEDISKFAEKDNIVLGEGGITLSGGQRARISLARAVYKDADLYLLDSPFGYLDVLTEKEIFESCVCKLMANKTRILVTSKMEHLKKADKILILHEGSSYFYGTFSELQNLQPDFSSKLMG
Summary of the method: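 NBD1 0.2 mg/ml, S200 buffer (50 mM Tris-HCl, 150 mM NaCl, 5 mM MgCl2, 2 mM ATP, 2 mM DTT, pH7.6) + 1% glycerol; cpd in DMSO; oil overlay. Ramp 25→70° C. at 1° C./min, DSLS images every 0.5° C. ΔTagg = Tagg (inflection) − mean DMSO Tagg.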

C[C@@H](Cc1cccc([C@@]2(C)CCCC(C)(C)CS(=O)(=O)CCc3c(c(F)cc4[nH]ccc34)Oc3ccnc(c3)-c3nc2nn3C)c1)C(=O)O (mixture of isomers) [Compound 201, (2S)-3-[3-[(6R)-22-Fluoro-3,6,10,10-tetramethyl-12,12-dioxo-24-oxa-12λ6-thia-3,4,19,28,30-pentazapentacyclo[23.3.1.12,5.015,23.016,20]triaconta-1(29),2(30),4,15,17,20,22,25,27-nonaen-6-yl]phenyl]-2-methyl-propanoic Acid]
TECC (AUC, 10 μM) [1]: B (a value between 12-20 is marked “B”) | DSLS 3D (100 μM ΔT) [2]: C (a value greater than 10 °C and less than or equal to 25 °C is marked “C”)

CC(CC(=O)O)c1cccc([C@@]2(C)CCCC(C)(C)CS(=O)(=O)CCc3c(c(F)cc4[nH]ccc34)[S+]([O-])c3ccc(F)c(c3)-c3nc2nn3C)c1 (mixture of isomers) [Compound 217A, 3-[3-[(6R)-22,28-difluoro-3,6,10,10-tetramethyl-12,12,24-trioxo-12λ6,24λ4-dithia-3,4,19,30-tetrazapentacyclo[23.3.1.12,5.015,23.016,20]triaconta-1(29),2(30),4,15,17,20,22,25,27-nonaen-6-yl]phenyl]butanoic Acid]
TECC (AUC, 10 μM) [1]: A (a TECC value less than 12 is marked “A”) | DSLS 3D (100 μM ΔT) [2]: B (a value above 5 °C and less than or equal to 10 °C is marked “B”)

C[C@H](Cc1cccc(C2(C)CCCC(C)(C)CS(=O)(=O)CCc3c(c(F)cc4[nH]ccc34)Oc3ccc(F)c(c3)-c3nc2nn3C)c1)C(=O)OCCN1CCN(C)CC1 (single isomer, unassigned) [Compound 182]
TECC (AUC, 10 μM) [1]: A (a TECC value less than 12 is marked “A”)

Cn1nc2nc1-c1cc(ccc1F)[S+]([O-])c1c(F)cc3[nH]ccc3c1CCS(=O)(=O)CC(C)(C)CCCC2(C)c1cccc(/C=C/C(=O)O)c1 (single isomer, unassigned) [Compound 210A, (E)-3-[3-(22,28-difluoro-3,6,10,10-tetramethyl-12,12,24-trioxo-12λ6,24λ4-dithia-3,4,19,30-tetrazapentacyclo[23.3.1.12,5.015,23.016,20]triaconta-1(29),2(30),4,15,17,20,22,25,27-nonaen-6-yl)phenyl]prop-2-enoic Acid]
TECC (AUC, 10 μM) [1]: C (a value between 20 and 80 is marked “C”)

Cn1nc2nc1-c1cc(ccc1F)[S+]([O-])c1c(F)cc3[nH]ccc3c1CCS(=O)(=O)CC(C)(C)CCCC2(C)c1cccc(/C=C/C(=O)O)c1 (single isomer, unassigned) [Compound 210B, (E)-3-[3-(22,28-difluoro-3,6,10,10-tetramethyl-12,12,24-trioxo-12λ6,24λ4-dithia-3,4,19,30-tetrazapentacyclo[23.3.1.12,5.015,23.016,20]triaconta-1(29),2(30),4,15,17,20,22,25,27-nonaen-6-yl)phenyl]prop-2-enoic Acid]
TECC (AUC, 10 μM) [1]: A (a TECC value less than 12 is marked “A”)

Cn1nc2nc1-c1cc(ccc1F)[S+]([O-])c1c(F)cc3[nH]ccc3c1CCS(=O)(=O)CC(C)(C)CCCC2(C)c1cccc(/C=C/C(=O)O)c1 (single isomer, unassigned) [Compound 210C, (E)-3-[3-(22,28-difluoro-3,6,10,10-tetramethyl-12,12,24-trioxo-12λ6,24λ4-dithia-3,4,19,30-tetrazapentacyclo[23.3.1.12,5.015,23.016,20]triaconta-1(29),2(30),4,15,17,20,22,25,27-nonaen-6-yl)phenyl]prop-2-enoic Acid]
TECC (AUC, 10 μM) [1]: B (a value between 12-20 is marked “B”)

Cn1nc2nc1-c1cc(ccc1F)[S+]([O-])c1c(F)cc3[nH]ccc3c1CCS(=O)(=O)CC(C)(C)CCCC2(C)c1cccc(/C=C/C(=O)O)c1 (single isomer, unassigned) [Compound 210D, (E)-3-[3-(22,28-difluoro-3,6,10,10-tetramethyl-12,12,24-trioxo-12λ6,24λ4-dithia-3,4,19,30-tetrazapentacyclo[23.3.1.12,5.015,23.016,20]triaconta-1(29),2(30),4,15,17,20,22,25,27-nonaen-6-yl)phenyl]prop-2-enoic Acid]
TECC (AUC, 10 μM) [1]: C (a value between 20 and 80 is marked “C”)
